{
  "source": "patent US20060211673A1",
  "about": "“Modulation of neurodegenerative diseases through the estrogen receptor” (ALSGEN, LLC, priority 2005, published 2006)",
  "key": {"SOD-1 mRNA": {"test_system": "SOD-1 mRNA", "experiment": "SOD-1 mRNA by RT-PCR in blood of the SOD-93A murine model for ALS", "format": "in vivo", "details": "SOD-93A mice, ip 1 or 10 mg/kg for 14 days, lymphocyte/blood samples, p<0.05, FIG. 2", "method": "The effects of the estrogen receptor modulating agent (e.g., Estradiol), and analogs thereof described in Examples 2 were tested in vivo in the SOD-93A murine model for ALS, and a reduction in SOD-1 levels was measured. The inhibition of RNA expression was monitored by isolated blood samples from a mouse pre- and post introduction of the compound (estradiol benzoate) using standard RT-PCR techniques. The expression of the SOD-1 protein was determined using Western blot techniques with an anti-SOD-1 antibody from Sigma. […] The results are shown as a % of internal control, 18S rRNA."}, "SOD-1 protein": {"test_system": "SOD-1 protein", "experiment": "SOD-1 ELISA on lysates of HeLa cells after 72 hours of incubation with drug", "format": "cell-based, human", "method": "Briefly, cells were maintained in Dulbecco's Minimal Essential Medium, with high glucose, supplemented with glutamine, 4 mM, certified fetal bovine serum, 10%, and penicillin, streptomycin, and nystatin (all from Invitrogen). Incubation conditions were 37 degrees and 99% relative humidity, with CO2 at 5%. Cultures were passaged when they reached 90% confluence. For pharmacological experiments, cells were plated into sterile tissue culture treated 96 well plates at a density of 3,500 cells/well in 150 μl medium. After plating and 6 hours for attachment, drugs were added to the medium in a concentration of 10 μM. Following 72 hours of incubation with the drugs, the cells were photographed at 100× using an inverted microscope and digital camera, so that cytotoxicity could be evaluated. After photodocumentation, the medium was removed and the cells were washed once with phosphate buffered saline, and then 50 μl molecular biology grade water containing a protease inhibitor cocktail was added. After 10 min incubation, the plates were placed in −80 degrees to induce complete lysis. Plates were then thawed and 25 μl was transferred from each well into a maxsorp ELISA plate coated with anti-human SOD-1 antibody, which contained 75 μl phosphate buffered saline. A second antibody pair (a polyclonal anti-SOD-1/HRP conjugated goat anti-rabbit) was then added to the well, and incubation was conducted for 1 hour at room temperature. At the conclusion of the incubation, the plate was washed three times (wash buffer from KPL Inc.) and Sure Blue Reserve HRP Substrate was added. […] The plate was then shaken gently for 5 seconds and the absorbance at 450 mn read on a Tecan Plate reader. Absorbance from each sample were compared to standard curve of purified recombinant human SOD-1 assayed on the same ELISA plate, and SOD-1 immunoreactivity (ng/ml) was estimated by comparison with the standard curve. […] The total protein of the lysates was determined by Bradford assay as described in Example 1 (iv). […]"}, "HeLa cells": {"test_system": "HeLa cells", "experiment": "Bradford total protein assay of HeLa lysates (check for cytotoxic effects)", "format": "cell-based, human", "details": "72 hours", "method": "To determine if decrements found in the SOD-1 assay were simply the result of cytotoxic effects of the drug treatment, total protein was determined for each well. While the ELISA incubation was ongoing, 10 μl of the remaining lysate was removed from each well and placed into another empty plate, and BioRad Bradford reagent (100 μl) was added to the protein. After a 15 min incubation at room temperature the plate was shaken gently for 5 seconds and the absorbance was read at 595 nm in a Tecan Sunrise plate reader. Protein concentrations in each well were thus determined by comparison with protein standards that were run on the same plate.\nFollowing 72 hours of incubation with the drugs, the cells were photographed and processed as described in Example 1 (iii). The total protein of the lysates was determined by Bradford assay as described in Example 1 (iv). […] This reduction was dose related and maximal by 3 μM, with an IC50 of 2 μM."}},
  "data": [
    {"molecule": "C[C@]12CC[C@@H]3c4ccc(OC(=O)c5ccccc5)cc4CC[C@H]3[C@@H]1CC[C@@H]2O", "note": "[estradiol benzoate]", "values": [
      {"measurement": "SOD-1 mRNA (% of internal control, 18S rRNA)", "setting": "SOD-1 mRNA", "result": "decreased"}
    ]},
    {"molecule": "C[C@]12CC[C@@H]3c4ccc(O)cc4CC[C@H]3[C@@H]1CC[C@@H]2O", "note": "[Estradiol]", "values": [
      {"measurement": "concentration at which reduction of SOD-1 protein is maximal", "setting": "SOD-1 protein; 72 hours, dose related", "result": "≤ 3", "unit": "µM"},
      {"measurement": "IC50", "setting": "SOD-1 protein; drug added to culture medium 72 hours before harvest, read-out: IC50 of reduction of SOD-1 protein levels", "result": 2000, "unit": "nM"},
      {"measurement": "total protein levels", "setting": "HeLa cells", "result": "unaffected"}
    ]},
    {"molecule": "CCCCC(=O)O[C@H]1CC[C@H]2[C@@H]3CCc4cc(O)ccc4[C@H]3CC[C@]12C", "note": "[estradiol valerate]", "values": [
      {"measurement": "levels of SOD-1 protein", "setting": "SOD-1 protein; 72 hours, FIG. 1", "result": "reduction"}
    ]}
  ]
}
